# According to ChEMBL document CHEMBL4373717, “Coumarin-containing hybrids and their anticancer activities” (Eur J Med Chem, 2019):
# Columns and labels:
# Format in all cases: functional, cell-based
# MDA-MB-231 [1] = experiment: Cytotoxicity against human MDA-MB-231 cells assessed as reduction in cell viability after 24 hrs by MTT assay
# HepG2 = experiment: Anticancer activity against human HepG2 cells by MTT assay
# 769-P = experiment: Anticancer activity against human 769-P cells by MTT assay
# MDA-MB-231 [2] = experiment: Anticancer activity against human MDA-MB-231 cells by MTT assay
# MCF7 [3] = experiment: Cytotoxicity against human MCF7 cells assessed as reduction in cell viability after 48 hrs by MTT assay; conditions: MCF7, 48 h
# A549 [4] = experiment: Cytotoxicity against human A549 cells assessed as reduction in cell viability after 24 hrs by MTT assay; conditions: A549, 24 h
# HeLa = experiment: Cytotoxicity against human HeLa cells assessed as reduction in cell viability after 68 hrs by MTT assay
# MCF7 [5] = experiment: Cytotoxicity against human MCF7 cells assessed as reduction in cell viability after 68 hrs by MTT assay; conditions: MCF7, 68 h
# A549 [6] = experiment: Cytotoxicity against human A549 cells assessed as reduction in cell viability after 68 hrs by MTT assay; conditions: A549, 68 h
# K562 = experiment: Cytotoxicity against human K562 cells assessed as reduction in cell viability after 68 hrs by MTT assay; conditions: K562, 68 h
compound,measurement,setting,value
O=C(Nc1ccccc1Br)c1ccc(-n2cc(COc3cc(=O)oc4ccccc34)nn2)cc1,IC50,MDA-MB-231 [1]; mda-mb-231,0.03 to 91.6 µM
O=c1ccc2ccc(OCCCCCCCn3cc(COc4ccc5ccc(=O)oc5c4)nn3)cc2o1,IC50,HepG2,0.383 to 13.6 µM
same,IC50,769-P,0.383 to 13.6 µM
same,IC50,MDA-MB-231 [2],0.383 to 13.6 µM
O=C(O)c1c(-c2cc3cc(Cl)ccc3oc2=O)[nH]c2ccccc12,IC50,MCF7 [3],5.5 to 100 µM
Cc1ccc(NC(=O)c2ccc(-n3cc(COc4cc(=O)oc5ccccc45)nn3)cc2)c(C)c1,IC50,MDA-MB-231 [1]; mda-mb-231,0.03 to 91.6 µM
O=C(Nc1ccc(Br)cc1)c1ccc(-n2cc(COc3cc(=O)oc4ccccc34)nn2)cc1,IC50,MDA-MB-231 [1]; mda-mb-231,0.03 to 91.6 µM
O=c1oc2ccccc2cc1-c1cc(-c2ccc(Cl)cc2)nc(Cc2ccc(F)cc2)n1,IC50,"MDA-MB-231 [1]; Homo sapiens, MDA-MB-231, 24 h",2.51 µM
same,IC50,A549 [4],2.51 µM
Cc1cc(-c2cc3ccccc3oc2=O)n(-c2nc(-c3ccccc3)cs2)n1,IC50,MCF7 [3],4.03 to 31.5 µM
O=c1oc2ccccc2cc1-c1cc(-c2cccc(Cl)c2)nc(Cc2ccc(F)cc2)n1,IC50,"MDA-MB-231 [1]; Homo sapiens, MDA-MB-231, 24 h",2.15 to 28.6 µM
same,IC50,A549 [4],2.15 to 28.6 µM
Cc1ccccc1NC(=O)c1ccc(-n2cc(COc3cc(=O)oc4ccccc34)nn2)cc1,IC50,MDA-MB-231 [1]; mda-mb-231,0.03 to 91.6 µM
CC(=O)c1ccc(NC(=O)Nc2ccc(Cc3c(C)c4cc(C(C)(C)C)c(O)cc4oc3=O)cn2)cc1,IC50,HeLa,1.66 to 19.4 µM
same,IC50,MCF7 [5],1.66 to 19.4 µM
same,IC50,A549 [6],1.66 to 19.4 µM
same,IC50,K562,1.66 to 19.4 µM
Cc1cc(=O)oc2cc(OCc3cn(CCOc4ccc5ccc(=O)oc5c4)nn3)ccc12,IC50,HepG2,0.383 to 13.6 µM
same,IC50,769-P,0.383 to 13.6 µM
same,IC50,MDA-MB-231 [2],0.383 to 13.6 µM
COc1ccc(-c2csc(-n3nc(C)cc3-c3cc4ccccc4oc3=O)n2)cc1,IC50,MCF7 [3],4.03 to 31.5 µM
O=c1oc2ccccc2cc1-c1cc(-c2cccc(Br)c2)nc(Cc2ccc(F)cc2)n1,IC50,"MDA-MB-231 [1]; Homo sapiens, MDA-MB-231, 24 h",2.15 to 28.6 µM
same,IC50,A549 [4],2.15 to 28.6 µM
Cc1cc(=O)oc2cc(OCc3cn(CCCCCCCCCCOc4ccc5ccc(=O)oc5c4)nn3)ccc12,IC50,HepG2,0.383 to 13.6 µM
same,IC50,769-P,0.383 to 13.6 µM
same,IC50,MDA-MB-231 [2],0.383 to 13.6 µM
O=c1oc2ccccc2cc1-c1cc(-c2ccc(Br)cc2)nc(Cc2ccc(F)cc2)n1,IC50,"MDA-MB-231 [1]; Homo sapiens, MDA-MB-231, 24 h",2.15 to 28.6 µM
same,IC50,A549 [4],2.15 to 28.6 µM
Cc1cc(-c2cc3ccccc3oc2=O)n(-c2nc(-c3ccc(Br)cc3)cs2)n1,IC50,MCF7 [3],4.03 to 31.5 µM
Cc1cc(=O)oc2cc(OCc3cn(CCCCCCCCCCCCOc4ccc5ccc(=O)oc5c4)nn3)ccc12,IC50,HepG2,0.383 to 13.6 µM
same,IC50,769-P,0.383 to 13.6 µM
same,IC50,MDA-MB-231 [2],0.383 to 13.6 µM
Cc1ccc(-c2cc(-c3cc4ccccc4oc3=O)nc(Cc3ccc(F)cc3)n2)cc1,IC50,"MDA-MB-231 [1]; Homo sapiens, MDA-MB-231, 24 h",2.15 to 28.6 µM
same,IC50,A549 [4],2.15 to 28.6 µM
COC(=O)c1cccc(NC(=O)c2ccc(-n3cc(COc4cc(=O)oc5ccccc45)nn3)cc2)c1,IC50,MDA-MB-231 [1]; mda-mb-231,0.03 to 91.6 µM
Cc1cc(-c2cc3cc(Cl)ccc3oc2=O)n(-c2nc(-c3ccc(Br)cc3)cs2)n1,IC50,MCF7 [3],4.03 to 31.5 µM
Cc1cc(-c2cc3cc(Br)ccc3oc2=O)n(-c2nc(-c3ccccc3)cs2)n1,IC50,MCF7 [3],4.03 to 31.5 µM
Cc1cc(-c2cc3cc(Br)ccc3oc2=O)n(-c2nc(-c3ccc(Cl)cc3)cs2)n1,IC50,MCF7 [3],4.03 to 31.5 µM
Cc1c(Cl)cccc1NC(=O)c1ccc(-n2cc(COc3cc(=O)oc4ccccc34)nn2)cc1,IC50,MDA-MB-231 [1]; mda-mb-231,0.03 to 91.6 µM
COc1ccc(-c2csc(-n3nc(C)cc3-c3cc4cc(Br)ccc4oc3=O)n2)cc1,IC50,MCF7 [3],4.03 to 31.5 µM
COc1ccc(OC)c(NC(=O)c2ccc(-n3cc(COc4cc(=O)oc5ccccc45)nn3)cc2)c1,IC50,MDA-MB-231 [1]; mda-mb-231,0.03 to 91.6 µM
Cc1cc(=O)oc2cc(OCc3cn(CCCCCCCCCOc4ccc5ccc(=O)oc5c4)nn3)ccc12,IC50,HepG2,0.383 to 13.6 µM
same,IC50,769-P,0.383 to 13.6 µM
same,IC50,MDA-MB-231 [2],0.383 to 13.6 µM
Cc1cc(=O)oc2cc(OCc3cn(CCCCCCOc4ccc5ccc(=O)oc5c4)nn3)ccc12,IC50,HepG2,0.383 to 13.6 µM
same,IC50,769-P,0.383 to 13.6 µM
same,IC50,MDA-MB-231 [2],0.383 to 13.6 µM
O=c1ccc2ccc(OCCCCCCCCCCCCn3cc(COc4ccc5ccc(=O)oc5c4)nn3)cc2o1,IC50,HepG2,0.383 to 13.6 µM
same,IC50,769-P,0.383 to 13.6 µM
same,IC50,MDA-MB-231 [2],0.383 to 13.6 µM
Cc1cccc(C)c1NC(=O)c1ccc(-n2cc(COc3cc(=O)oc4ccccc34)nn2)cc1,IC50,MDA-MB-231 [1]; mda-mb-231,0.03 to 91.6 µM
O=c1ccc2ccc(OCCCCCCCCCn3cc(COc4ccc5ccc(=O)oc5c4)nn3)cc2o1,IC50,HepG2,0.383 to 13.6 µM
same,IC50,769-P,0.383 to 13.6 µM
same,IC50,MDA-MB-231 [2],0.383 to 13.6 µM
Cc1c(Cc2ccc(NC(=O)Nc3ccccc3)nc2)c(=O)oc2cc(O)c(C(C)(C)C)cc12,IC50,HeLa,1.66 to 19.4 µM
same,IC50,MCF7 [5],1.66 to 19.4 µM
same,IC50,A549 [6],1.66 to 19.4 µM
same,IC50,K562,1.66 to 19.4 µM
Cc1cc(=O)oc2cc(OCc3cn(CCCCOc4ccc5ccc(=O)oc5c4)nn3)ccc12,IC50,HepG2,0.383 to 13.6 µM
same,IC50,769-P,0.383 to 13.6 µM
same,IC50,MDA-MB-231 [2],0.383 to 13.6 µM
O=c1oc2ccccc2cc1-c1cc(-c2ccccc2Cl)nc(Cc2ccc(F)cc2)n1,IC50,"MDA-MB-231 [1]; Homo sapiens, MDA-MB-231, 24 h",2.15 to 28.6 µM
same,IC50,A549 [4],2.15 to 28.6 µM
